# Assay results: PubChem BioAssay (NCI)
#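 The compound was tested at five concentrations on cells cultured in 96-well plates, with a 48-hour exposure period. TGI is the concentration that stops growth completely.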
# How the values were obtained:
# Test in all cases: NCI tumour cell line growth inhibition, 48 h
# [1] = test system: OVCAR-5 ovarian
# [2] = test system: UACC-257 melanoma
# [3] = test system: K-562 leukemia
# [4] = test system: KM12 colon
# [5] = test system: HOP-62 NSCLC
# [6] = test system: HL-60(TB) leukemia
# [7] = test system: SNB-78 CNS
# [8] = test system: HCC-2998 colon
# [9] = test system: SK-MEL-2 melanoma
# [10] = test system: SF-539 CNS
# [11] = test system: TK-10 renal
# [12] = test system: A498 renal
# [13] = test system: SNB-19 CNS
# [14] = test system: SN12C renal
# [15] = test system: U251 CNS
# [16] = test system: MALME-3M melanoma
# [17] = test system: SK-OV-3 ovarian
# [18] = test system: HT29 colon
# [19] = test system: LXFL 529 NSCLC
# [20] = test system: RXF 393 renal
# [21] = test system: OVCAR-3 ovarian
# [22] = test system: NCI-H23 lung
# [23] = test system: HCT-116 colon
# [24] = test system: CCRF-CEM leukemia
# [25] = test system: LOX IMVI melanoma
# [26] = test system: EKVX NSCLC
# [27] = test system: DLD-1 colon
# [28] = test system: SF-268 CNS
# [29] = test system: M14 melanoma
# [30] = test system: RXF-631 renal
# [31] = test system: NCI-H460 lung
# [32] = test system: XF 498 CNS
# [33] = test system: M19-MEL melanoma
# [34] = test system: SNB-75 CNS
# [35] = test system: SK-MEL-28 melanoma
# [36] = test system: OVCAR-4 ovarian
# [37] = test system: NCI-H522 lung
# [38] = test system: UO-31 renal
# [39] = test system: OVCAR-8 ovarian
# [40] = test system: A549 NSCLC
# [41] = test system: SK-MEL-5 melanoma
# [42] = test system: COLO 205 colon
# [43] = test system: 786-0 renal
# [44] = test system: MOLT-4 leukemia
# [45] = test system: SF-295 CNS
# [46] = test system: SW-620 colon
# [47] = test system: UACC-62 melanoma
# [48] = test system: CAKI-1 renal
# [49] = test system: HOP-92 NSCLC
# [50] = test system: DMS 273 small cell lung
# [51] = test system: DMS 114 small cell lung
# [52] = test system: HCT-15 colon
# [53] = test system: KM20L2 colon
# [54] = test system: HOP-18 NSCLC
# [55] = test system: RPMI-8226 leukemia
# [56] = test system: ACHN renal
# [57] = test system: IGROV1 ovarian
# [58] = test system: NCI-H226 lung
# [59] = test system: SR leukemia
structure (smiles),measurement,setting,value
O=S(O)CCCCCSSc1ccc(Cl)cc1,TGI,[1],50.2 µM
same,TGI,[2],59.3 µM
same,TGI,[3],> 100 µM
same,TGI,[4],60.7 µM
same,TGI,[5],41.3 µM
same,TGI,[6],> 100 µM
same,TGI,[7],70.3 µM
same,TGI,[8],73.7 µM
same,TGI,[9],34.7 µM
same,TGI,[10],29.5 µM
same,TGI,[11],54.4 µM
same,TGI,[12],36.6 µM
same,TGI,[13],91.4 µM
same,TGI,[14],31.1 µM
same,TGI,[15],21.7 µM
same,TGI,[16],89.9 µM
same,TGI,[17],> 100 µM
same,TGI,[18],70.5 µM
same,TGI,[19],27 µM
same,TGI,[20],31.4 µM
same,TGI,[21],31.3 µM
same,TGI,[22],44.4 µM
same,TGI,[23],77.2 µM
same,TGI,[24],> 100 µM
same,TGI,[25],29.9 µM
same,TGI,[26],> 100 µM
same,TGI,[27],67.5 µM
same,TGI,[28],23.5 µM
same,TGI,[29],71.5 µM
same,TGI,[30],46.8 µM
same,TGI,[31],> 100 µM
same,TGI,[32],36 µM
same,TGI,[33],91 µM
same,TGI,[34],56.2 µM
same,TGI,[35],66.6 µM
same,TGI,[36],> 100 µM
same,TGI,[37],28.5 µM
same,TGI,[38],26.3 µM
CC(=O)NNc1nc(C)c(C(=O)/C=C/c2ccc(N(C)C)cc2)s1,TGI,[39],> 100 µM
same,TGI,[40],> 100 µM
same,TGI,[1],> 100 µM
same,TGI,[2],> 100 µM
same,TGI,[3],> 100 µM
same,TGI,[41],> 100 µM
same,TGI,[4],> 100 µM
same,TGI,[5],> 100 µM
same,TGI,[6],> 100 µM
same,TGI,[7],> 100 µM
same,TGI,[42],> 100 µM
same,TGI,[8],> 100 µM
same,TGI,[43],> 100 µM
same,TGI,[44],> 100 µM
same,TGI,[9],> 100 µM
same,TGI,[45],> 100 µM
same,TGI,[10],> 100 µM
same,TGI,[46],> 100 µM
same,TGI,[47],> 100 µM
same,TGI,[48],> 100 µM
same,TGI,[11],> 100 µM
same,TGI,[49],> 100 µM
same,TGI,[12],> 100 µM
same,TGI,[50],> 100 µM
same,TGI,[51],> 100 µM
same,TGI,[14],> 100 µM
same,TGI,[52],> 100 µM
same,TGI,[15],> 100 µM
same,TGI,[16],> 100 µM
same,TGI,[17],> 100 µM
same,TGI,[18],> 100 µM
same,TGI,[20],> 100 µM
same,TGI,[21],> 100 µM
same,TGI,[53],> 100 µM
same,TGI,[54],> 100 µM
same,TGI,[22],> 100 µM
same,TGI,[24],> 100 µM
same,TGI,[25],> 100 µM
same,TGI,[26],> 100 µM
same,TGI,[27],> 100 µM
same,TGI,[28],> 100 µM
same,TGI,[30],> 100 µM
same,TGI,[55],> 100 µM
same,TGI,[31],> 100 µM
same,TGI,[56],> 100 µM
same,TGI,[34],> 100 µM
same,TGI,[35],> 100 µM
same,TGI,[57],> 100 µM
same,TGI,[58],> 100 µM
same,TGI,[37],> 100 µM
same,TGI,[38],> 100 µM
O=C(Nc1ccc(Nc2ccc(NC(=O)c3ccccc3)c3c2C(=O)c2ccccc2C3=O)c2c1C(=O)c1ccccc1C2=O)c1ccccc1,TGI,[39],> 100 µM
same,TGI,[40],> 100 µM
same,TGI,[2],> 100 µM
same,TGI,[3],> 100 µM
same,TGI,[41],> 100 µM
same,TGI,[4],> 100 µM
same,TGI,[5],> 100 µM
same,TGI,[6],> 100 µM
same,TGI,[7],> 100 µM
same,TGI,[42],> 100 µM
same,TGI,[8],> 100 µM
same,TGI,[43],> 100 µM
same,TGI,[44],> 100 µM
same,TGI,[9],> 100 µM
same,TGI,[10],> 100 µM
same,TGI,[46],> 100 µM
same,TGI,[47],> 100 µM
same,TGI,[48],> 100 µM
same,TGI,[11],> 100 µM
same,TGI,[12],> 100 µM
same,TGI,[50],> 100 µM
same,TGI,[13],> 100 µM
same,TGI,[51],> 100 µM
same,TGI,[14],> 100 µM
same,TGI,[52],> 100 µM
same,TGI,[59],> 100 µM
same,TGI,[15],> 100 µM
same,TGI,[16],> 100 µM
same,TGI,[17],> 100 µM
same,TGI,[19],> 100 µM
same,TGI,[20],> 100 µM
same,TGI,[21],> 100 µM
same,TGI,[53],> 100 µM
same,TGI,[54],> 100 µM
same,TGI,[23],> 100 µM
same,TGI,[24],> 100 µM
same,TGI,[26],> 100 µM
same,TGI,[27],> 100 µM
same,TGI,[28],> 100 µM
same,TGI,[29],> 100 µM
same,TGI,[30],> 100 µM
same,TGI,[55],> 100 µM
same,TGI,[31],> 100 µM
same,TGI,[33],> 100 µM
same,TGI,[56],> 100 µM
same,TGI,[34],> 100 µM
same,TGI,[35],> 100 µM
same,TGI,[57],> 100 µM
same,TGI,[36],> 100 µM
same,TGI,[58],> 100 µM
same,TGI,[37],> 100 µM
same,TGI,[38],> 100 µM
Cc1cc(C)c([O-])c(-[n+]2c(-c3ccccc3)cc(-c3ccccc3)cc2-c2ccccc2)c1,TGI,[39],17.7 µM
same,TGI,[40],28 µM
same,TGI,[1],18.4 µM
same,TGI,[2],10.1 µM
same,TGI,[3],> 100 µM
same,TGI,[41],5.71 µM
same,TGI,[4],13.1 µM
same,TGI,[5],22.8 µM
same,TGI,[6],4.16 µM
same,TGI,[7],27.7 µM
same,TGI,[42],12.2 µM
same,TGI,[8],13.6 µM
same,TGI,[43],19.7 µM
same,TGI,[44],> 100 µM
same,TGI,[9],10.2 µM
same,TGI,[45],17.1 µM
same,TGI,[10],26.9 µM
same,TGI,[46],15.7 µM
same,TGI,[47],12.5 µM
same,TGI,[48],22.1 µM
same,TGI,[11],19.4 µM
same,TGI,[49],5.48 µM
same,TGI,[50],12.1 µM
same,TGI,[13],21 µM
same,TGI,[51],12.3 µM
same,TGI,[14],18.5 µM
same,TGI,[52],25.4 µM
same,TGI,[59],11.8 µM
same,TGI,[15],14.9 µM
same,TGI,[16],16.7 µM
same,TGI,[17],27.2 µM
same,TGI,[18],12.2 µM
same,TGI,[19],14.4 µM
same,TGI,[20],20.2 µM
same,TGI,[21],12 µM
same,TGI,[53],12.9 µM
same,TGI,[54],16.2 µM
same,TGI,[22],13.7 µM
same,TGI,[23],10.9 µM
same,TGI,[24],10.1 µM
same,TGI,[25],11.1 µM
same,TGI,[26],21.4 µM
same,TGI,[27],16.7 µM
same,TGI,[28],21.5 µM
same,TGI,[29],18.3 µM
same,TGI,[30],26.4 µM
same,TGI,[31],15.8 µM
same,TGI,[32],6.21 µM
same,TGI,[33],13.2 µM
same,TGI,[56],16.6 µM
same,TGI,[34],17.5 µM
same,TGI,[35],14.2 µM
same,TGI,[57],19.9 µM
same,TGI,[36],18.5 µM
same,TGI,[58],24.9 µM
same,TGI,[38],33.7 µM
